This is an account of results in patent publication EP4563146A1 (IRBM S.P.A., priority 2023, dated 2025).

The test has as its system ZIKV replicon. The test can be described thus: ZIKV replication inhibition assay (NanoLuc replicon in Vero cells). The following applies: Zika virus, Vero, 72 h. Background: Replicon systems follow genome replication, usually without infectious particles.
Where [1] appears, read: read-out: ZIKA Cell_Nanoluc, Vero cells with stable ZIKV replicon, 72 h, Nano-Glo readout.

Read-outs that look alike come from different tables or passages of the source. Where only a bound is given, the exact number is not on record here.

Consider `O=C(Cc1ccccc1)Nc1cc(NC(=O)[N-]c2c[n+](Cc3ccc(CO)cn3)no2)cc(C(F)(F)F)c1` [Example 116, (3-((5-(Hydroxymethyl)pyridin-2-yl)methyl)-1,2,3-oxadiazol-3-ium-5-yl)((3-(2-phenylacetamido)-5-(trifluoromethyl)phenyl)carbamoyl)amide], for which, under setting [1], the EC50 was 1 to 20 µM. `O=C(Cc1c[nH]c2cccnc12)Nc1cc(NC(=O)[N-]c2c[n+](Cc3ccccn3)no2)cc(C(F)(F)F)c1` [Example 36]: the EC50 (read-out: ZIKA Cell_Nanoluc) was 1 to 20 µM. Regarding `NCC12CC(C[n+]3cc([N-]C(=O)Nc4cc(NC(=O)Cc5ccccc5)cc(C(F)(F)F)c4)on3)(C1)C2` [Example 103], the EC50 (read-out: ZIKA Cell_Nanoluc) is more than 20 µM. Regarding `O=C(Cc1ccccc1)Nc1cc(NC(=O)[N-]c2c[n+](CC3CCCNC3)no2)cc(C(F)(F)F)c1` (stereo not drawn) [Example 110, ((3-(2-Phenylacetamido)-5-(trifluoromethyl)phenyl)carbamoyl)(3-(piperidin-3-ylmethyl)-1,2,3-oxadiazol-3-ium-5-yl)amide], the EC50 under setting [1] is more than 20 µM. `O=C([N-]c1c[n+](Cc2ccccn2)no1)Nc1cc(NC(=O)C2CC(F)(F)C23CCC3)cc(C(F)(F)F)c1` (stereo not drawn) [Example 85]: the EC50 (read-out: ZIKA Cell_Nanoluc) fell in the range of 1 to 20 µM. `O=C(Cn1c(C(F)F)nc2ccccc21)Nc1cc(NC(=O)[N-]c2c[n+](Cc3ccccn3)no2)cc(C(F)(F)F)c1` [Example 65]: the EC50 (read-out: ZIKA Cell_Nanoluc) was more than 20 µM.

In the case of `O=C([N-]c1c[n+](Cc2ccccn2)no1)Nc1cc(NC(=O)c2cnccn2)cc(C(F)(F)F)c1` [Example 45], for the setting “read-out: ZIKA Cell_Nanoluc”, the EC50 was 1 to 20 µM. Take `COC(=O)c1ccc(C[n+]2cc([N-]C(=O)Nc3cc(NC(=O)Cc4ccccc4)cc(C(F)(F)F)c3)on2)cc1` [Example 98, (3-(4-(Methoxycarbonyl)benzyl)-1,2,3-oxadiazol-3-ium-5-yl)((3-(2-phenyl-acetamido)-5-(trifluoromethyl)phenyl)carbamoyl)amide]: under setting [1], the EC50 lay within 1 to 20 µM.

As to `O=C(Cc1ccccc1)Nc1cc(NC(=O)[N-]c2c[n+](Cc3ccc(CO)cn3)no2)cc(C2CC2)c1` [Example 129, ((3-Cyclopropyl-5-(2-phenylacetamido)phenyl)-carbamoyl)(3-((5-(hydroxymethyl)pyridin-2-yl)methyl)-1,2,3-oxadiazol-3-ium-5-yl)amide], the EC50 under setting [1] lay within 1 to 20 µM. The same measure, in the same setting: with `NCc1cccc(C[n+]2cc([N-]C(=O)Nc3cc(NC(=O)Cc4ccccc4)cc(C(F)(F)F)c3)on2)c1` [Example 108, (3-(3-(Aminomethyl)benzyl)-1,2,3-oxadiazol-3-ium-5-yl)((3-(2-phenylacetamido)-5-(trifluoromethyl)phenyl)carbamoyl)amide] the figure was 1 to 20 µM.

Consider `O=C(C#Cc1ccccc1)Nc1cc(NC(=O)[N-]c2c[n+](Cc3ccccn3)no2)cc(C(F)(F)F)c1` [Example 46], for which the EC50 (read-out: ZIKA Cell_Nanoluc) is 1 to 20 µM. For the compound `COc1ncc(-c2ccc(C[n+]3cc([N-]C(=O)Nc4cc(NC(=O)CC5CCCCC5)cc(C(F)(F)F)c4)on3)cc2)c(C)n1` [Example 8], the EC50 (read-out: ZIKA Cell_Nanoluc) was in the range of 1 to 20 µM.

As for `Cc1nc(CC(=O)Nc2cc(NC(=O)[N-]c3c[n+](Cc4ccccn4)no3)cc(C(F)(F)F)c2)cs1` [Example 41, ((3-(2-(2-Methylthiazol-4-yl)acetamido)-5-(trifluoromethyl)phenyl)-carbamoyl)(3-(pyridin-2-ylmethyl)-1,2,3-oxadiazol-3-ium-5-yl)amide], the EC50 under setting [1] is 1 to 20 µM. Same read-out and setting: in the case of `O=C([N-]c1c[n+](Cc2ccccn2)no1)Nc1cc(NC(=O)C2CCn3cncc3C2)cc(C(F)(F)F)c1` (stereo not drawn) [Example 80, (3-(Pyridin-2-ylmethyl)-1,2,3-oxadiazol-3-ium-5-yl)((3-(5,6,7,8-tetrahydroimidazo [1,5-a]pyridine-7-carboxamido)-5-(trifluoromethyl)phenyl)carbamoyl)amide] it was more than 20 µM.

As to `NC[C@H]1CC[C@@H](C[n+]2cc([N-]C(=O)Nc3cc(N4CCC(c5ccccc5)C4=O)cc(C(F)(F)F)c3)on2)CC1` (stereo partly drawn) [Example 133, (3-(((1S,4S)-4-(Aminomethyl)cyclohexyl)-methyl)-1,2,3-oxadiazol-3-ium-5-yl)((3-(2-oxo-3-phenylpyrrolidin-1-yl)-5-(trifluoromethyl)-phenyl)carbamoyl)amide], the EC50 (read-out: ZIKA Cell_Nanoluc) was 1 to 20 µM.
